Tests used:
[1] = tested on: neutrophils isolated from the peripheral blood of healthy individuals; test: Superoxide production amount of PMA-stimulated neutrophils with PBS solutions stored for 10 days vs immediately after preparation; type: cell-based, human; conditions: PBS solution stored for 10 days vs immediately after preparation; 0, 6.25, 12.5, 25, 50, 100 or 20 μmol/l; FIG. 4
Procedure: (§1) First, ED2AP, BisEp-C3, edaravone, BisEp-C1, or BisEp-C1 (H2) was added to a neutrophil of 4×10^5 cells per sample so as to achieve a predetermined concentration (0, 12.5, 25, 50, 100, or 200 μmol/l, or 0, 125, 250, 500, 1250, 2500, or 5000 μmol/l) with 5 μmol of CLA, and then the cell suspension was seeded in flat-bottomed 96-well plates. The volume of the suspension was 200 μl/well, and phenol red free Ca+, Mg+ HBSS was used as the solution. In addition, the neutrophil was stimulated by adding PMA so as to achieve a concentration of 100 ng/ml. After the stimulation, a plate reader (Envision 2104 Multilabel Reader, produced by Perkin Elmer Co., Ltd.) was used to measure the chemiluminescence value over time for 30 minutes with the PMA stimulation time being a reference. The measurement interval was 30 seconds. The sum of the chemiluminescence values obtained every 30 seconds for 30 minutes was taken as the superoxide production amount. In addition, as a control, the superoxide production amount was measured in the same manner except that each compound was not added. The relative value of the superoxide production amount when each compound was added was calculated with the superoxide production amount of the control being 100.
PBS solutions of ED2AP, BisEp-C3, and edaravone were prepared in the same manner as in Example 2 and stored for 10 days. The superoxide production amount was calculated in the same manner as in Example 4 except that the PBS solution after storage was added instead of ED2AP, BisEp-C3, edaravone, BisEp-C1 or BisEp-C1 (H2) so as to achieve a predetermined concentration (0, 6.25, 12.5, 25, 50, 100 or 20 μmol/l) of ED2AP, BisEp-C3 or edaravone. Further, PBS solutions of ED2AP, BisEp-C3, and edaravone were prepared in the same manner as in Example 2, and the superoxide production amount was calculated in the same manner except that the PBS solution immediately after preparation was used. Then, the relative value of the superoxide production amount of each sample was calculated with the superoxide production amount of the sample of 0 μmol/l being 100.

[2] = tested on: neutrophils isolated from the peripheral blood of healthy individuals; test: Superoxide production amount of PMA-stimulated neutrophils, CLA chemiluminescence; type: cell-based, human; conditions: for relative value of the superoxide production amount: 0-200 μmol/l or 0-5000 μmol/l, PMA 100 ng/ml, control being 100, FIG. 2; for reactive oxygen species-eliminating ability compared with edaravone: PMA-stimulated neutrophils, FIG. 2(A)
Procedure: For examining the reactive oxygen-eliminating effect of the antioxidant of the present invention, the superoxide produced by the neutrophils when the neutrophils isolated from the peripheral blood of healthy individuals were stimulated with PMA (phorbor-12-myristate-13-acetate) was used. The superoxide production amount was measured by chemiluminescence using CLA (2-methyl-6-pjenyl-3, 7-dihydroimidazo[1,2-a]pyrazine-3-one).
as §1

rat neuroid cells B50 = test: Alleviation of singlet oxygen (Rose Bengal + G-LED) cytotoxicity, Alamar Blue fluorescence; type: cell-based; conditions: for recovery of the fluorescence intensity (cellular activity): 0, 12.5, 25, 50, or 100 μmol/l, 200 nmol/l RB + G-LED 5 minutes, FIG. 3; for cytoprotective function compared with edaravone: B50 cells, RB + G-LED singlet oxygen
Procedure: Edaravone, ED2AP and BisEp-C3 were examined whether they had the function of alleviating neuronopathy. Specifically, singlet oxygen was generated by combining Rose Bengal (RB), which is a sensitizer, with green light (G-LED), and the function of alleviating the cytotoxicity of the generated singlet oxygen was examined with the cellular activity being an indicator.
First, rat neuroid cells B50 were cultured in 12-well dishes at 2×10^5 cells/well (medium: RPMI-1640 medium containing 5% FCS) overnight. After the culturing, the medium of each well was replaced with HBSS (1000 μl/well; phenol red free Ca+, Mg+) containing 200 nmol/l RB and edaravone, ED2AP, or BisEp-C3 having a predetermined concentration (0, 12.5, 25, 50, or 100 μmol/l). The dish was then irradiated with G-LED for 5 minutes to generate singlet oxygen. Thereafter, the medium of each well was replaced with 1000 μl of HBSS and Alamar Blue was added. The dish was then allowed to react for about 2 hours in an incubator at 37° C. and 5% CO2. After the reaction, fluorescence intensity (excitation wavelength: λ-560 nm, fluorescence wavelength: λ-595 nm) was measured with a plate reader (infinite200, Tecan Trading AG). In this experimental system, the higher the cellular activity, the more Alamar Blue is taken up and the higher the fluorescence intensity. As a control, fluorescence intensity was measured in the same manner except that sodium azide (Azide, NaN3) was added instead of the compounds so as to achieve a concentration of 4 mmol/l. As a negative control (NC), fluorescence intensity was measured in the same manner except that RB was not added. The relative value of the fluorescence intensity in the sample to which each compound was added was calculated with the fluorescence intensity of the negative control being 100.

Structure (SMILES)	superoxide-eliminating ability after storage [1]	relative value of the superoxide production amount [2]	reactive oxygen species-eliminating ability compared with edaravone [2]	recovery of the fluorescence intensity (cellular activity) (rat neuroid cells B50)	cytoprotective function compared with edaravone (rat neuroid cells B50)
CCN1N=C(C)/C(=C\C=C\c2c(C)nn(CC)c2O)C1=O (racemic) [BisEp-C3, 2,4-dihydro-4-[3-(1-ethyl-5-hydroxy-3-methyl-1H-pyrazol-4-yl)-2-propen-1-ylidene]-2-ethyl-5-methyl-3H-pyrazol-3-one]	maintained the superoxide-eliminating ability equivalent to that immediately after preparation even after storage	suppressed the superoxide production amount in a concentration-dependent manner	more potent than edaravone at high concentrations	recovered in a concentration-dependent manner	higher than that of edaravone
CC1=NN(c2ccccc2)C(=O)/C1=C/C=C/c1c(C)nn(-c2ccccc2)c1O (racemic) [ED2AP, 2,4-dihydro-4-[3-(5-hydroxy-3-methyl-1-phenyl-1H-pyrazol-4-yl)-2-propen-1-ylidene]-5-methyl-2-phenyl-3H-pyrazol-3-one]	maintained the superoxide-eliminating ability equivalent to that immediately after preparation even after storage	suppressed the superoxide production amount in a concentration-dependent manner	more potent than edaravone at high concentrations	recovered in a concentration-dependent manner	higher than that of edaravone

From patent US20220110916A1, “Antioxidant and Use Thereof” (Bioradical Research Institute Corp., priority 2019, published 2022)
